In article PMC9137614, “TXH11106: A Third-Generation MreB Inhibitor with Enhanced Activity against a Broad Range of Gram-Negative Bacterial Pathogens” (Antibiotics, 2022):
Where two headings read alike, the source gives them in different places.

Target: T1, MreB (EcMreB) (Escherichia coli, UniProt P0A9X4)
T1 construct: N-terminal 8× His-tagged E. coli MreB (mreB from ATCC 25922), wild-type
Assay: malachite green ATPase assay with purified EcMreB; Eadie–Hofstee kinetics
Format: biochemical

T1 sequence (P0A9X4 whole entry): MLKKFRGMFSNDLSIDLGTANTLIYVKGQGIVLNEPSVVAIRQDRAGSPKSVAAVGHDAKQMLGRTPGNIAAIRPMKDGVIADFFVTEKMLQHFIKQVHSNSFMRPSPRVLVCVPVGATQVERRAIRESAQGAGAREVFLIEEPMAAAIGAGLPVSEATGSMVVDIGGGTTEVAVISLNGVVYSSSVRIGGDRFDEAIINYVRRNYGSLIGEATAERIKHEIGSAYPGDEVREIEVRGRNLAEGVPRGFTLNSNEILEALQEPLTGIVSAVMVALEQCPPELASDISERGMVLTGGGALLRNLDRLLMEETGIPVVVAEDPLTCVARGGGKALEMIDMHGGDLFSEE

Structure (SMILES)	IC50 (read-out: IC50) [µM]	IC50 [µM]
NC1CCCc2c1[nH]c1ccc(Br)cc21 (stereo not drawn) [CBR-4830]	49 ± 8	–
N=C(N)SCc1ccc(Cl)c(Cl)c1 [A22]	–	447 ± 87
NC1CCCc2c1[nH]c1ccc(Cl)c(Cl)c21 (stereo not drawn) [compound 4, 5,6-dichloro-2,3,4,9-tetrahydro-1H-carbazol-1-amine]	14 ± 2	–
